The source of these data is ChEMBL document CHEMBL5727342, “Imidazo[4,5-C]pyridine and pyrrolo[2,3-C]pyridine derivatives as SSAO inhibitors” (2018).

The series has as its target Voltage-gated inwardly rectifying potassium channel KCNH2 (Homo sapiens, UniProt Q12809). Put plainly: Electrophysiological recordings were made from a Chinese Hamster Lung cell line stably expressing the full length hERG channel. Single cell ion currents were measured in the perforated patch clamp configuration (100 ug/mL amphoterocin) at room temperature using an IonWorks Quattro instrument. The internal solution contained 140 mM KCl, 1 mM MgCl2, 1 mM EGTA and 20 mM HEPES and was buffered to pH 7.3. […] This sequence was repeated 5 times at a frequency of 0.25 Hz. […] Compounds were incubated for 6-7 min prior to a second measurement of the hERG signal using an identical pulse train.

Sequence of Voltage-gated inwardly rectifying potassium channel KCNH2 (Q12809 whole entry): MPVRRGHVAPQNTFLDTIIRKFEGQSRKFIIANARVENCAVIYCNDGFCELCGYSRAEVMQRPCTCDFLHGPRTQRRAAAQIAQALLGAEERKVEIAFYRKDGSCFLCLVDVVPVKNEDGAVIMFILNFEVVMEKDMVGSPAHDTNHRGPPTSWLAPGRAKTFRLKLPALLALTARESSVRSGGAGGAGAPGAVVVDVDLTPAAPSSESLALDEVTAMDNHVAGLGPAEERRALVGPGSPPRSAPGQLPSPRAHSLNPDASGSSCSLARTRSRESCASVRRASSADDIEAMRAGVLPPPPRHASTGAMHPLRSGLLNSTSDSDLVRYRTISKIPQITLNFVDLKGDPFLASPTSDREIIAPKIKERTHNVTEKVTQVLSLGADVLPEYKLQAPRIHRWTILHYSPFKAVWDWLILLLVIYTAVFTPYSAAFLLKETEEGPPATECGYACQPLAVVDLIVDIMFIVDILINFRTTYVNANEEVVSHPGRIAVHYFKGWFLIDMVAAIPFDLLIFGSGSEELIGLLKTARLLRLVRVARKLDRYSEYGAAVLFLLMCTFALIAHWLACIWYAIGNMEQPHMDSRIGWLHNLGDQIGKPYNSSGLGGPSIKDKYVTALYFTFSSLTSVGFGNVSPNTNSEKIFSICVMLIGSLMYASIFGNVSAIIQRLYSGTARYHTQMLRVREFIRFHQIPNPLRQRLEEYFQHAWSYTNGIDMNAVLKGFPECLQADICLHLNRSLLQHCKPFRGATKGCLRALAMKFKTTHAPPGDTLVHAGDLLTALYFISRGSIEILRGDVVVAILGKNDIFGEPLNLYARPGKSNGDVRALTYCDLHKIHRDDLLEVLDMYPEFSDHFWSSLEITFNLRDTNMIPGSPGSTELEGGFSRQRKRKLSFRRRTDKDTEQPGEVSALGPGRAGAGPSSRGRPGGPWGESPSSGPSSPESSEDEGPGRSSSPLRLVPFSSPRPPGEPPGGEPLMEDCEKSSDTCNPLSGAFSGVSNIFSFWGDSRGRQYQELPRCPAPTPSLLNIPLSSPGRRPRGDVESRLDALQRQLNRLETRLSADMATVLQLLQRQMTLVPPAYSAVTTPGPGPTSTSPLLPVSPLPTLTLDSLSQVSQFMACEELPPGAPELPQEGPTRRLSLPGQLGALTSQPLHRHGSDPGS

For the compound `Clc1ccc(-n2c(-c3ccncc3)nc3ccncc32)cc1`, the IC50 result is “in the range around 5.5 µM”.
